Laboratory results reported in patent US3997506A (priority 1974, dated 1976).
Several values for one entry are separate records, joined by “and”; a condition that tells them apart may be missing. Equal entries are not always repeated. Where two headings read alike, the source gives them in different places.

Key:
[1] = system: Sprague Dawley SIV 50 rat; format: in vivo, male and female Sprague Dawley SIV 50 rat; details: for Death rate: 10 days
Source text: The high toxicity of the new derivative of colchicine (N-desacetyl-N-adamantoyl-thiocolchicine) has been investigated through the oral way with the male and female Sprague Dawley SIV 50 rat having an average weight of 100 g.
Two experiments have been carried out. In the first one, only the high toxicity of the derivative has been studied; in the second one, the high toxicity of the derivative has been compared with that of colchicine.
The derivative and colchicine have been administered in suspension in propylene glycol through an oesophageal tube at the rate of 2 ml per rat for the first experiment and of 1 ml for the second one.
The animals have been observed for 10 days.

[2] = in vitro; details: human, leucocytes, % of dead cells (Average of 2 determinations), no PHA
[3] = system: leucocytes from rats; details: 6 hours after administration, 2 mg/kg oral
[4] = system: human leucocytes; experiment: in vitro; format: cell-based; details: for % of dead cells: C6 = 50 μg/ml
Method: (§1) The cytotoxicity has been investigated on human leucocytes by means of the viability test with Trypan blue.
(§2) a. In a first experimentation cultures of leucocytes of a voluntary […] were prepared and caused to undergo incubation with phytohemagglutinin (PHA) and with different concentrations of colchicine or of its derivative (C1 = 2.5 μg/ml of culture, C3 = 10 μg/ml, C5 = 30 μg/ml, C6 = 50 μg/ml). Leucocytes only containing PHA served as controls.
(§3) After 3, 42, 68 and 72 hours of incubation a sample of each culture was contacted by a drop of Trypan blue and laid on a slide of a microscope. Then took place the counting of the dead cells (those with assumed an […] colour) and of all the cells present on the slide in order to obtain the ratio of the number of dead cells to the total number of cells. The results expressed as a rate in per cent are shown in the accompanying table 8.
(§4) b. After the experimentation which has just been described, the study of cytotoxicity has been continued with two other samples of human leucocytes still by means of the viability test with Trypan blue.
(§5) C1 = 2.5 μg/ml of culture
(§6) C6 = 50 μg/ml of culture;
(§7) and for the carboxy-1-adamantane fraction to:
(§8) C3 = 4.5 μg/ml of culture
(§9) C6 = 22.5 μg/ml of culture.
(§10) Leucocytes only containing phytohemagglutinin and others containing phytohemagglutinin and 50 μl of methanol served as controls.
(§11) The percentage of dead cells was determined after different numbers of hours of incubation.

[5] = in vitro; format: cell-based, human; details: human, leucocytes, read-out: % of dead cells
Method: as §1, §2, §3, §4, §5, §6, §7, §8, §9, §10, §11

[6] = system: human leucocytes
[7] = system: phagocytosis by peritoneal macrophages of mice; format: cell-based; details: for % phagocytosis with respect to controls (= 100%): 80 min
[8] = system: leucocytes from rats; details: individual rat, 2 mg/kg oral
[9] = system: oedema produced by crystals of urate in the hind paw of the rat; format: in vivo, Sprague Dawely female rats; details: for % of inhibition of edema / Difference in weight between left and right leg (Average ± standard deviation of mean term): three subcutaneous injections, 6 h after urate
[10] = first experimentation, C1 = 2.5 μg/ml
[11] = first experimentation, C3 = 10 μg/ml
[12] = first experimentation, C5 = 30 μg/ml

Structure (SMILES): COc1cc2c(c(OC)c1OC)-c1ccc(SC)c(=O)cc1C(NC(=O)C13CC4CC(CC(C4)C1)C3)CC2 (single isomer, unassigned) [Derivative, N-desacetyl-N-adamantoyl-thiocolchicine]
- deaths (in words) ([1]; 3 g/kg): no death has been detected
- Death rate ([1]; first experiment, 2.000 mg/kg oral): 0/10
- Death rate ([1]; first experiment, 3.000 mg/kg oral): 0/10
- Death rate ([1]; second experiment, 100 mg/kg oral): 0/6
- Death rate ([1]; second experiment, 500 mg/kg oral): 0/6
- Death rate ([1]; second experiment, 1,000 mg/kg oral): 0/6
- Death rate ([1]; second experiment, 2,000 mg/kg oral): 0/6
- Death rate ([1]; second experiment, 3,000 mg/kg oral): 0/6
- cytotoxicity at 6 h ([2]; C1 = 0.01 μg/ml): 1%
- cytotoxicity at 6 h ([2]; C2 = 0.1 μg/ml): 1%
- cytotoxicity at 6 h ([2]; C3 = 0.5 μg/ml): 0%
- cytotoxicity at 6 h ([2]; C4 = 1.0 μg/ml): 1%
- cytotoxicity at 6 h ([2]; C5 = 2.5 μg/ml): 1%
- cytotoxicity at 6 h ([2]; C6 = 10.0 μg/ml): 1%
- cytotoxicity at 30 h ([2]; C1 = 0.01 μg/ml): 64%
- cytotoxicity at 30 h ([2]; C2 = 0.1 μg/ml): 54%
- cytotoxicity at 30 h ([2]; C3 = 0.5 μg/ml): 50%
- cytotoxicity at 30 h ([2]; C4 = 1.0 μg/ml): 49%
- cytotoxicity at 30 h ([2]; C5 = 2.5 μg/ml): 45%
- cytotoxicity at 30 h ([2]; C6 = 10.0 μg/ml): 67%
- cytotoxicity at 48 h ([2]; C1 = 0.01 μg/ml): 93%
- cytotoxicity at 48 h ([2]; C2 = 0.1 μg/ml): 95%
- cytotoxicity at 48 h ([2]; C3 = 0.5 μg/ml): 91%
- cytotoxicity at 48 h ([2]; C4 = 1.0 μg/ml): 94%
- cytotoxicity at 48 h ([2]; C5 = 2.5 μg/ml): 88%
- cytotoxicity at 48 h ([2]; C6 = 10.0 μg/ml): 91%
- cytotoxic effect (in words) [3]: no cytotoxic effect has been noticed
- % of dead cells ([3]; individual rat, 2 mg/kg, 360 min): 2% and 1% and 0%
- cytotoxicity, cultures I and II (in words) ([4]; Cultures I and II): does not seem to be very different from that of colchicine or methanol after 23 hours of incubation; however for longer periods of time and more especially with concentrations C5 and C6 it becomes more substantial
- % of dead cells ([4]; first experimentation, 68 hours): very few
- % of dead cells ([4]; first experimentation, 72 hours): very few
- cytotoxicity, colchicine versus derivative (in words) [4, 10]: substantially the same
- cytotoxicity compared with colchicine (in words) ([4]; first experimentation, higher concentrations): more cytotoxic than colchicine itself
- cytotoxicity at 4 h ([5]; Culture I, C3 = 10 μg/ml): 15%
- cytotoxicity at 4 h ([5]; Culture I, C6 = 50 μg/ml): 17%
- cytotoxicity at 22 h ([5]; Culture I, C3 = 10 μg/ml): 12%
- cytotoxicity at 22 h ([5]; Culture I, C6 = 50 μg/ml): 22%
- cytotoxicity at 46 h ([5]; Culture I, C3 = 10 μg/ml): 42%
- cytotoxicity at 46 h ([5]; Culture I, C6 = 50 μg/ml): 53%
- cytotoxicity at 76 h ([5]; Culture I, C3 = 10 μg/ml): 40%
- cytotoxicity at 76 h ([5]; Culture I, C6 = 50 μg/ml): 62%
- cytotoxicity at 23 h ([5]; Culture II, C1 = 2.5 μg/ml): 8%
- cytotoxicity at 23 h ([5]; Culture II, C3 = 10 μg/ml): 11%
- cytotoxicity at 23 h ([5]; Culture II, C5 = 30 μg/ml): 16%
- cytotoxicity at 46 h ([5]; Culture II, C1 = 2.5 μg/ml): 4%
- cytotoxicity at 46 h ([5]; Culture II, C3 = 10 μg/ml): 13%
- cytotoxicity at 46 h ([5]; Culture II, C5 = 30 μg/ml): 22%
- cytotoxicity at 72 h ([5]; Culture II, C1 = 2.5 μg/ml): 26%
- cytotoxicity at 72 h ([5]; Culture II, C3 = 10 μg/ml): 41%
- cytotoxicity at 72 h ([5]; Culture II, C5 = 30 μg/ml): 43%
- cytotoxicity at 72 h ([5]; Culture II, C6 = 50 μg/ml, *x/x = 2 different tubes): 61%
- cytotoxicity at 3 h [5, 10]: 0%
- cytotoxicity at 3 h [5, 11]: 0%
- cytotoxicity at 3 h [5, 12]: 0%
- cytotoxicity at 42 h [5, 10]: 5%
- cytotoxicity at 42 h [5, 11]: 7%
- cytotoxicity at 42 h [5, 12]: 23%
- cytotoxicity at 42 h ([5]; first experimentation, C6 = 50 μg/ml): 32%
- cytotoxicity at 68 h [5, 10]: 5%
- cytotoxicity at 68 h [5, 11]: 9%
- cytotoxicity at 68 h [5, 12]: 20%
- cytotoxicity at 72 h [5, 10]: 9%
- cytotoxicity at 72 h [5, 11]: 12%
- cytotoxicity at 72 h [5, 12]: 35%
- number of leucocytes with increasing amounts (in words) ([6]; Table 9, 72 hours): still further lowered with the same amounts of the derivative
- Count of leucocytes after 72 hours ([6]; Table 9, C1 = 2.5 μg/ml, control 412,500): 487,000
- Count of leucocytes after 72 hours ([6]; Table 9, C3 = 10 μg/ml, control 412,500): 360,000
- Count of leucocytes after 72 hours ([6]; Table 9, C5 = 30 μg/ml, control 412,500): 180,000
- Count of leucocytes after 72 hours ([6]; Table 9, C6 = 50 μg/ml, control 412,500): 157,000
- Count of leucocytes after 72 hours ([6]; Table 11, Culture I, C3 = 10 μg/ml): 430,000
- Count of leucocytes after 72 hours ([6]; Table 11, Culture I, C6 = 50 μg/ml): 515,000
- Count of leucocytes after 72 hours ([6]; Table 11, Culture II, C1 = 2.5 μg/ml): 140,000
- Count of leucocytes after 72 hours ([6]; Table 11, Culture II, C3 = 10 μg/ml): 200,000
- Count of leucocytes after 72 hours ([6]; Table 11, Culture II, C5 = 30 μg/ml): 245,000
- Count of leucocytes after 72 hours ([6]; Table 11, Culture II, C6 = 50 μg/ml (two values given)): 290,000 and 345,000
- number of leucocytes in absence or presence of substance (in words) ([6]; Table 11, very approximative): remain substantially the same
- inhibition of phagocytosis ([7]; 0.004 μg): 10%
- % phagocytosis with respect to controls (= 100%) ([7]; 0.004 μg, Experimentation III): 93.8%
- % phagocytosis with respect to controls (= 100%) ([7]; 0.004 μg, Experimentation IV): 85.8%
- % phagocytosis with respect to controls (= 100%) ([7]; 0.04 μg, Experimentation III): 84.5%
- % phagocytosis with respect to controls (= 100%) ([7]; 0.04 μg, Experimentation IV): 85.9%
- % phagocytosis with respect to controls (= 100%) ([7]; 0.04 μg, Experimentation V): 89.9%
- % phagocytosis with respect to controls (= 100%) ([7]; 0.4 μg, Experimentation III): 72.8%
- % phagocytosis with respect to controls (= 100%) ([7]; 0.4 μg, Experimentation IV): 77.6%
- % phagocytosis with respect to controls (= 100%) ([7]; 0.4 μg, Experimentation V): 76.2%
- inhibition of phagocytosis ([7]; 4 μg): 65%
- % phagocytosis with respect to controls (= 100%) ([7]; 4 μg, Experimentation II): 22.5%
- % phagocytosis with respect to controls (= 100%) ([7]; 4 μg, Experimentation III): 33.1%
- % phagocytosis with respect to controls (= 100%) ([7]; 4 μg, Experimentation IV): 42.5%
- % phagocytosis with respect to controls (= 100%) ([7]; 4 μg, Experimentation V): 39.3%
- % phagocytosis with respect to controls (= 100%) ([7]; 5 μg, Experimentation II): 25.9%
- % phagocytosis with respect to controls (= 100%) ([7]; 10 μg, Experimentation II): 25.5%
- % phagocytosis with respect to controls (= 100%) ([7]; 12.5 μg, Experimentation I): 46.2%
- % phagocytosis with respect to controls (= 100%) ([7]; 20 μg, Experimentation II): 31.3%
- % phagocytosis with respect to controls (= 100%) ([7]; 30 μg, Experimentation II): 31.1%
- % phagocytosis with respect to controls (= 100%) ([7]; 40 μg, Experimentation II): 31.0%
- % phagocytosis with respect to controls (= 100%) ([7]; 40 μg, Experimentation III): 43.7%
- % phagocytosis with respect to controls (= 100%) ([7]; 40 μg, Experimentation IV): 48.4%
- inhibition of phagocytosis of the red blood-corpuscles by the macrophages (in words) ([7]; compared with colchicine): will inhibit phagocytosis of the red blood-corpuscles by the macrophages nearly as colchicine would do
- Leucocytes / mm^3 ([8]; experiment 1, 6 hours after administration, 2 mg/kg): 9,050 / mm^3 and 8,450 / mm^3 and 9,350 / mm^3
- Leucocytes / mm^3 ([8]; experiment 1, before administration, 2 mg/kg): 9,050 / mm^3 and 12,250 / mm^3 and 17,525 / mm^3
- Leucocytes / mm^3 ([8]; experiment 2, 6 hours after administration): 5,400 / mm^3
- Leucocytes / mm^3 ([8]; experiment 2, before administration, 2 mg/kg): 5,900 / mm^3 and 9,350 / mm^3
- Leucocytes / mm^3 ([8]; experiment 3, 6 hours after administration): 13,500 / mm^3
- Leucocytes / mm^3 ([8]; experiment 3, before administration, 2 mg/kg): 13,250 / mm^3 and 7,200 / mm^3
- % of inhibition of edema ([9]; 2 mg/kg): 10%
- Difference in weight between left and right leg (Average ± standard deviation of mean term) ([9]; 2 mg/kg): 0.264 ± 0.031 g
- % of inhibition of edema ([9]; 6 mg/kg): 50%
- Difference in weight between left and right leg (Average ± standard deviation of mean term) ([9]; 6 mg/kg): 0.145 ± 0.019 g
- protection against the oedema produced by crystals of urate (in words) ([9]; colchicine 2 mg/kg, derivative 6 mg/kg): significant protection
